In patent US11236047B2 (ASTEX THERAPEUTICS LIMITED, priority 2017, dated 2022):

Key:
MDM2-p53 interaction = MDM2-p53 interaction (Homo sapiens (Human), UniProt Q00987); details: for inhibition at 0.03 µM: read-out: MDM2 % inhibition @0.030; for inhibition at 0.001 µM: read-out: MDM2 % inhibition @0.0010; for inhibition at 0.003 µM: read-out: MDM2 % inhibition @0.0030
SN40R2 cells = test: Protocol B: SN40R2 CellTiter-Glo luminescent cell viability assay; details: for inhibition at 10 µM: read-out: SN40R2 % inhibition at 10, Protocol B, SN40R2, at 10 μM; for inhibition at 3 µM: read-out: SN40R2 % inhibition at 3, Protocol B, SN40R2, at 3 μM
SJSA-1 cells = test: Protocol B: SJSA-1 CellTiter-Glo luminescent cell viability assay; details: read-out: SJSA1 IC50; Protocol B, SJSA-1

MDM2-p53 interaction, sequence (Q00987 whole entry): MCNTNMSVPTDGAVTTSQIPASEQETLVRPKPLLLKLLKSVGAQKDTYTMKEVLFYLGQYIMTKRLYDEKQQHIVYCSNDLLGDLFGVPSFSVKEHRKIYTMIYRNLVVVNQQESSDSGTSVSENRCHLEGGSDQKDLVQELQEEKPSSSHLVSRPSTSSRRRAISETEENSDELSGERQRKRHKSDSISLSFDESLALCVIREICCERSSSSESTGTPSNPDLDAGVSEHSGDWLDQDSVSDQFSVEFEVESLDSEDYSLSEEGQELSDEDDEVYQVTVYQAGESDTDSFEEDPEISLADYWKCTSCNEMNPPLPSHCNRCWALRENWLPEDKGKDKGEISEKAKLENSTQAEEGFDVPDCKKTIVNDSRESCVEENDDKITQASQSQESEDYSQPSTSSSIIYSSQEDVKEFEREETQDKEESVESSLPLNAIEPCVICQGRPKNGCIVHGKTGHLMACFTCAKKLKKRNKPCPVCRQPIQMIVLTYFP

Row | SMILES | inhibition at 0.001 µM (MDM2-p53 interaction) [%] | inhibition at 10 µM (SN40R2 cells) [%] | further results
1 | Cc1c[nH]c(C(C)(O)c2cc(F)c3c(c2)C(=O)N(Cc2ccc(Cl)cn2)[C@@]3(OCC2(O)CC2)c2ccc(Cl)cc2)n1 (mixture of isomers) [Example 332, (3R)-3-(4-chlorophenyl)-2-[(5-chloropyridin-2-yl)methyl]-4-fluoro-6-[1-hydroxy-1-(4-methyl-1H-imidazol-2-yl)ethyl]-3-[(1-hydroxycyclopropyl)methoxy]-2,3-dihydro-1H-isoindol-1-one] |  | 5 | inhibition at 0.03 µM (MDM2-p53 interaction): 60%
2 | CCC(O)(c1cc(F)c2c(c1)C(=O)N(Cc1ncc(Cl)cn1)[C@@]2(O[C@H]1CCOC1)c1ccc(Cl)cc1)C1CCNCC1 (single isomer, unassigned) [Example 448] | 84 |  | inhibition at 30 µM (SN40R2 cells; read-out: SN40R2 % inhibition at 30, Protocol B, SN40R2, at 30 μM): 48%
3 | CCC(O)(c1cc(F)c2c(c1)C(=O)N(Cc1ncc(Cl)cn1)[C@@]2(O[C@H]1CCOC1)c1ccc(Cl)cc1)C1CCN(C)CC1 (single isomer, unassigned) [Example 449] | 78 | 19 | 
4 | CCCC(O)(c1cc(F)c2c(c1)C(=O)N(Cc1ccc(C#N)cn1)[C@@]2(O[C@H]1CCOC1)c1ccc(Cl)cc1)c1cn(C)cn1 (single isomer, unassigned) [Example 472] |  | 10 | inhibition at 0.003 µM (MDM2-p53 interaction): 48%
5 | CCC(O)(c1cc(F)c2c(c1)C(=O)N(Cc1ncc(Cl)cc1O)[C@@]2(O[C@H]1C[C@@H](O)C1)c1ccc(Cl)cc1)c1cn(C)cn1 (single isomer, unassigned) [Example 487] | 59 | 12 | 
6 | CCC(O)(c1cc(F)c2c(c1)C(=O)N(Cc1ccc(C#N)cn1)[C@@]2(OC)c1ccc(Cl)cc1)[C@H]1CC[C@H](O)CC1 (single isomer, unassigned) [Example 521] | 77 | 11 | 
7 | CCC(O)(c1cc(F)c2c(c1)C(=O)N(Cc1ncc(Cl)cn1)[C@@]2(O[C@H]1C[C@@H](O)C1)c1ccc(Cl)cc1)C1(F)CCNCC1 (single isomer, unassigned) [Example 542] |  | -1 | inhibition at 0.01 µM (MDM2-p53 interaction; read-out: MDM2 % inhibition @0.010): 57%
8 | CN1CCC(C(C)(O)c2cc(F)c3c(c2)C(=O)N(Cc2ncc(Cl)cn2)[C@@]3(OCC2(F)COC2)c2ccc(Cl)cc2)CC1 (single isomer, unassigned) [Example 558] |  | 6 | inhibition at 0.003 µM (MDM2-p53 interaction): 53%
9 | CCC(O)(c1cc(F)c2c(c1)C(=O)N(Cc1ncc(C#N)cn1)[C@@]2(OC)c1ccc(Cl)cc1)[C@H]1CC[C@H](O)CC1 (stereo partly drawn) [Example 504, 2-{[(1R)-1-(4-chlorophenyl)-7-fluoro-5-{1-hydroxy-1-[trans-4-hydroxycyclohexyl]propyl}-1-methoxy-3-oxo-2,3-dihydro-1H-isoindol-2-yl]methyl}pyrimidine-5-carbonitrile] | 71 | 0 | 
10 | CC[C@@](O)(c1cc(F)c2c(c1)C(=O)N(Cc1ncc(C#N)cn1)[C@@]2(O[C@H]1C[C@@H](O)C1)c1ccc(Cl)cc1)C1(F)CCOCC1 [Example 505, 2-{[(1R)-1-(4-chlorophenyl)-7-fluoro-5-[(1R)-1-(4-fluorooxan-4-yl)-1-hydroxypropyl]-3-oxo-1-[cis-3-hydroxycyclobutoxy]-2,3-dihydro-1H-isoindol-2-yl]methyl}pyrimidine-5-carbonitrile] | 60 | 5 | 
11 | CC[C@](O)(c1cc(F)c2c(c1)C(=O)N(Cc1ncc(C#N)cn1)[C@@]2(O[C@H]1C[C@@H](O)C1)c1ccc(Cl)cc1)C1(F)CCOCC1 [Example 506, 2-{[(1R)-1-(4-chlorophenyl)-7-fluoro-5-[(1S)-1-(4-fluorooxan-4-yl)-1-hydroxypropyl]-3-oxo-1-[cis-3-hydroxycyclobutoxy]-2,3-dihydro-1H-isoindol-2-yl]methyl}pyrimidine-5-carbonitrile] |  | 2 | inhibition at 0.03 µM (MDM2-p53 interaction): 36%
12 | CC[C@@](O)(c1cc(F)c2c(c1)C(=O)N(Cc1ncc(C#N)cn1)[C@@]2(O[C@H]1CCOC1)c1ccc(Cl)cc1)C1(F)CCOCC1 [Example 507, 2-{[(1R)-1-(4-chlorophenyl)-7-fluoro-5-[(1R)-1-(4-fluorooxan-4-yl)-1-hydroxypropyl]-3-oxo-1-[(3S)-oxolan-3-yloxy]-2,3-dihydro-1H-isoindol-2-yl]methyl}pyrimidine-5-carbonitrile] |  |  | inhibition at 0.003 µM (MDM2-p53 interaction): 65%; inhibition at 3 µM (SN40R2 cells): 5%
13 | CCC(O)(c1cc(F)c2c(c1)C(=O)N(Cc1ncc(Cl)cn1)[C@@]2(OC)c1ccc(Cl)cc1)[C@H]1CC[C@H](O)CC1 (stereo partly drawn) [Example 511, (3R)-3-(4-chlorophenyl)-2-[(5-chloropyrimidin-2-yl)methyl]-4-fluoro-6-{1-hydroxy-1-[trans-4-hydroxycyclohexyl]propyl}-3-methoxy-2,3-dihydro-1H-isoindol-1-one] | 72 | 10 | 
14 | CCC(O)(c1cc(F)c2c(c1)C(=O)N(Cc1ccc(C#N)cn1)[C@@]2(OC1CC(O)C1)c1ccc(Cl)cc1)[C@H]1CC[C@H](O)CC1 (stereo partly drawn) [Example 520, 6-{[(1R)-1-(4-chlorophenyl)-7-fluoro-5-{1-hydroxy-1-[trans-4-hydroxycyclohexyl]propyl}-3-oxo-1-[cis-3-hydroxycyclobutoxy]-2,3-dihydro-1H-isoindol-2-yl]methyl}pyridine-3-carbonitrile] |  |  | inhibition at 0.03 µM (MDM2-p53 interaction): 32%; IC50 (SJSA-1 cells): 3.9 µM

More lines, main results first:

Row | inhibition at 0.001 µM (MDM2-p53 interaction) [%] | SMILES | inhibition at 10 µM (SN40R2 cells) [%] | further results
15 | 68 | CCC(O)(c1cc(F)c2c(c1)C(=O)N(Cc1ncc(Cl)cn1)[C@@]2(OC[C@@H](C)O)c1ccc(Cl)cc1)C1(F)CCNCC1 (single isomer, unassigned) [Example 543] | -6 | 
16 | 86 | CCC(O)(c1cc(F)c2c(c1)C(=O)N(Cc1ncc(Cl)cn1)[C@@]2(OC)c1ccc(Cl)cc1)C1(F)CCNCC1 (single isomer, unassigned) [Example 544] | 109 | 
17 | 94 | CCC(O)(c1cc(F)c2c(c1)C(=O)N(Cc1ncc(Cl)cn1)[C@@]2(OCC1(C#N)CC1)c1ccc(Cl)cc1)C1(F)CCNCC1 (single isomer, unassigned) [Example 545] |  | inhibition at 3 µM (SN40R2 cells): 4%
18 | 86 | CCC(O)(c1cc(F)c2c(c1)C(=O)N(Cc1ccc(C#N)cn1)[C@@]2(O[C@H]1CCOC1)c1ccc(Cl)cc1)C1(F)CCNCC1 (single isomer, unassigned) [Example 546] | 17 | 
19 | 82 | CCC(O)(c1cc(F)c2c(c1)C(=O)N(Cc1ncc(C#N)cn1)[C@@]2(O[C@H]1CCOC1)c1ccc(Cl)cc1)C1(F)CCNCC1 (single isomer, unassigned) [Example 547] | 4 | 
20 | 82 | CCC(O)(c1cc(F)c2c(c1)C(=O)N(Cc1ccc(Cl)cn1)[C@@]2(O[C@H]1CCOC1)c1ccc(Cl)cc1)C1(F)CCNCC1 (single isomer, unassigned) [Example 548] | 111 | 
21 | 85 | CCC(O)(c1cc(F)c2c(c1)C(=O)N(Cc1ccc(Cl)cn1)[C@@]2(OC[C@@H](C)O)c1ccc(Cl)cc1)C1(F)CCNCC1 (single isomer, unassigned) [Example 549] | 33 | 
22 | 79 | CCC(O)(c1cc(F)c2c(c1)C(=O)N(Cc1ncc(Cl)cn1)[C@@]2(OC)c1ccc(Cl)cc1)C1(F)CCN(C2COC2)CC1 (single isomer, unassigned) [Example 552] | 7 | 
23 | 47 | CCC(O)(c1cc(F)c2c(c1)C(=O)N(Cc1ncc(C#N)cn1)[C@@]2(O[C@H]1CCOC1)c1ccc(Cl)cc1)C1(F)CCN(C)CC1 (single isomer, unassigned) [Example 561] | 12 | 
24 | 76 | CCC(O)(c1cc(F)c2c(c1)C(=O)N(Cc1ncc(Cl)cn1)[C@@]2(OC)c1ccc(Cl)cc1)C1(F)CCN(C)CC1 (single isomer, unassigned) [Example 563] | 72 | 
25 | 86 | CCC(O)(c1cc(F)c2c(c1)C(=O)N(Cc1ncc(Cl)cn1)[C@@]2(OCC1(C#N)CC1)c1ccc(Cl)cc1)C1(F)CCN(C)CC1 (single isomer, unassigned) [Example 564] |  | inhibition at 3 µM (SN40R2 cells): 10%
26 | 65 | CCC(O)(c1cc(F)c2c(c1)C(=O)N(Cc1ncc(Cl)cn1)[C@@]2(OCCO)c1ccc(Cl)cc1)C1(F)CCN(C)CC1 (single isomer, unassigned) [Example 565] | 11 | 
27 | 83 | CCC(O)(c1cc(F)c2c(c1)C(=O)N(Cc1ncc(Cl)cn1)[C@@]2(O[C@H]1C[C@@H](O)C1)c1ccc(Cl)cc1)C1(F)CCN(C)CC1 (single isomer, unassigned) [Example 570] | 26 | 
28 | 77 | CCC(O)(c1cc(F)c2c(c1)C(=O)N(Cc1ncc(Cl)cn1)[C@@]2(O[C@H]1CCOC1)c1ccc(Cl)cc1)C1(F)CCN(C)CC1 (single isomer, unassigned) [Example 571] | 38 | 
29 | 45 | CCC(O)(c1cc(F)c2c(c1)C(=O)N(Cc1ncc(C#N)cn1)[C@@]2(OCC1(C#N)CC1)c1ccc(Cl)cc1)C1(F)CCN(C)CC1 (single isomer, unassigned) [Example 574] | 27 | 
30 | 38 | CCC(O)(c1cc(F)c2c(c1)C(=O)N(Cc1ncc(C#N)cn1)[C@@]2(OC)c1ccc(Cl)cc1)C1(F)CCN(C)CC1 (single isomer, unassigned) [Example 575] | 14 | 
